Paper PMC3997483, “Aminostyrylbenzofuran Directly Reduces Oligomeric Amyloid-β and Reverses Cognitive Deficits in Alzheimer Transgenic Mice” (PLoS ONE, 2014)

What was measured:
APP/PS1 TG mice [1] = assay: Morris water maze, prophylactic trial; format: in vivo, mouse; conditions: TG mice
Procedure: Behavioral tests were performed in the following sequence: Y-maze (day 1), Morris water maze (day 4 to 12) and contextual fear conditioning (day 26 to 27). To reduce stress, contextual fear conditioning was carried out 2 weeks after the Morris water maze task. In the therapeutic trial, APP/PS1 TG mice were treated with KMS88009 (30 mg/kg/day) for 3 months from 9 to 12 months of age. Y-maze tests short-term spatial working memory. Y-maze is a 3-armed (40 L×10 W×12 H cm) horizontal maze in which the arms are symmetrically disposed at 120° angles from each other. Mice were placed at the end of one arm and allowed to move freely through the maze during a 5-min session. Arm entry was considered completed when the hind paws of the mouse were completely placed in the arm. Alternation was defined as successive entries into the 3 arms on overlapping triplet sets. The series of arm entries was recorded via video recorders. The percentage of alternation was defined according to the following equation: % alternation = [(number of alternations)/(total arm entries - 2)] ×100. Mice performing fewer than 7 alternations in 5 min were excluded from the subsequent analysis to accurately determine alternation scores. Morris water maze was used to measure spatial learning and memory. A stainless pool apparatus with a diameter of 120 cm was used. A clear escape platform (circle, 12×12 cm) was located 1.0 cm below (hidden) the water surface containing white nontoxic paint. The temperature of water was kept constant throughout the experiment (21±1°C). The visual cues, for mice to recognize the environment and direction, are placed on the walls around the pool. The training was consisted of 8 consecutive days of testing with 4 trials per day. When a mouse was located on the escape platform, it was permitted to remain on the platform for 15 sec. […] Then the subject was returned to its home cage and allowed to dry up after each trial. The platform location was kept constant and the starting position was varied. Each mouse was placed in the water with their nose pointing toward the wall at one of the starting points in a random manner. During each trial session, the time taken to find the hidden platform (latency) was recorded using a video camera-based Ethovision System (Nodulus, Nertherlands). On the 9th day, each mouse was tested on a probe trial. The platform was removed from pool and the mice were allowed to swim for 60 sec to search. Swimming time was recorded during mice were in the pool quadrant where the platform had been previously located. Mice, which float or jump from platform, were eliminated from the experiment since these responses may be incompatible with the behaviors needed to locate and learn the platform position. In addition, animals with difficulty in swimming were also excluded from this study. Fear conditioning task was measured to test the ability to learn and remember an association between an aversive experience and environmental cues. Contextual fear conditioning evaluation was performed using a fear-conditioning chamber (Courlbourn, USA) equipped with a computer-controlled fear conditioning system (FreActimetrics, USA). On the first day of training, each mouse was placed in the conditioning chamber and left to adjust for 2 min. Fear conditioning test was performed with conditional stimulus (CS) of sound (75 dB) for 20 sec followed by unconditional stimulus (US) of electric foot-shock (0.5 mA) for the last 2 sec in CS. After 1 min, the subject was returned to its home cage. After 24 hr, retention test was performed. […] Freezing response was measured without CS or US. Freezing behavior was defined as the complete absence of any movement except for respiration and heartbeat. Animals with no response to the foot-shock during training were excluded from the analysis. Data analyses including recordings of all behavioral responses were performed by keeping research colleagues blind.

APP/PS1 TG mice [2] = assay: Y-maze, prophylactic trial; format: in vivo, mouse; conditions: PO 100 mg/kg/day, 5 to 12 months of age
in vitro = conditions: monkey, microsomes

| Structure (SMILES) | Latency (hidden platform) (APP/PS1 TG mice [1]; Day 1, dose group +++ (100 mg/kg/day)) [s] | Latency (hidden platform) (APP/PS1 TG mice [1]; Day 2, dose group +++ (100 mg/kg/day)) [s] | Latency (hidden platform) (APP/PS1 TG mice [1]; Day 3, dose group +++ (100 mg/kg/day)) [s] | Latency (hidden platform) (APP/PS1 TG mice [1]; Day 4, dose group +++ (100 mg/kg/day)) [s] | Latency (hidden platform) (APP/PS1 TG mice [1]; Day 5, dose group +++ (100 mg/kg/day)) [s] | Latency (hidden platform) (APP/PS1 TG mice [1]; Day 6, dose group +++ (100 mg/kg/day)) [s] | Latency (hidden platform) (APP/PS1 TG mice [1]; Day 7, dose group +++ (100 mg/kg/day)) [s] | Latency (hidden platform) (APP/PS1 TG mice [1]; Day 8, dose group +++ (100 mg/kg/day)) [s] | frequency of spontaneous alternation (Y-maze) (APP/PS1 TG mice [2]) [%] | half-life at 5 µM (in vitro) [min] | remaining at 1 h, 5 µM (in vitro) [%] |
| --- | --- | --- | --- | --- | --- | --- | --- | --- | --- | --- | --- |
| O[C@H]1[C@H](O)[C@@H](O)[C@H](O)[C@@H](O)[C@@H]1O [Scyllo-inositol, reference compound] | 49.1 ± 2.4 | 43.1 ± 2.6 | 44.7 ± 4.2 | 37.5 ± 4.0 | 44.6 ± 3.3 | 39.0 ± 4.3 | 38.4 ± 4.4 | 37.2 ± 4.3 | 70.0 |  |  |
| C[C@]12CC[C@H]3[C@@H](CCC4=CC(=O)CC[C@@]43C)[C@@H]1CC[C@@H]2O [Testosterone, reference compound] |  |  |  |  |  |  |  |  |  | 23.4 ± 0.5 | 16 ± 0.4 |
